Patent US10899766B2, “Bridged piperidine derivatives” (Hoffmann-La Roche Inc., priority 2016, dated 2021)
pEC50: −log10 of the molar value.

tested on: γ-secretase; test: Cellular γ-secretase assay (inhibition of Aβ42 secretion, AlphaLisa); type: cell-based; settings: Human neuroglioma H4 cells overexpressing human APP695 Swedish double mutation; 24 hr compound incubation; secreted Aβ42 in supernatant
Method: Cellular γ-Secretase Assay
Human neuroglioma H4 cells overexpressing human APP695 with the Swedish double mutation (K595N/M596L) were plated at 30,000 cells/well/100 μl in 96-well plates in IMDM media containing 10% FCS, 0.2 mg/l Hygromycin B and incubated at 37° C., 5% CO2.
3-4 hr post plating, compounds are a diluted in media and 50 μl is added as 1.5-fold concentrate to achieve the final concentration. Compound incubation is performed for 24 hr. Final doses typically range from 4 μM down to 0.0013 μM in half-log steps resulting in a eight point dose response curve.
Appropriate controls using vehicle only and reference compound were applied to this assay. The final concentration of Me2SO was 0.4%.
After incubation at 37° C., 5% CO2, the supernatant was subjected to quantification of secreted Aβ42 by the means of an AlphaLisa assay kit (Human Amyloid beta 1-42 Kit: Cat # AL203C, Perkin Elmer). 20 μl of the cell culture supernatant was transferred to an assay plate. Then 10 μl of a mixture of the AlphaLisa coupled capture antibody and the biotinylated detection antibody was added and incubated for 3 hours at room temperature while softly shaking the assay plate. After a further addition of 20 μl of the Donor beads the assay plate was incubated for 30 min at room temperature and constant shaking without exposure to direct light.
The assay plate was then read on a Paradigm AlphaLisa Reader using the build-in program with excitation at 680 nm and emission at […].
The measured signals were then used to calculate IC50 values for inhibition of Aβ42 secretion by nonlinear regression fit analysis using XLfit 5.3 software (IDBS).

SMILES	pEC50
Cc1cc(N2C[C@H]3CC[C@@H](C2)[C@@H]3Nc2nc3n(n2)CCCN3c2ccc(F)c(F)c2)ncn1 [Example 3, 4-(3,4-difluorophenyl)-N-[(1R,5S,8S)-3-(6-methylpyrimidin-4-yl)-3-azabicyclo[3.2.1]octan-8-yl]-6,7-dihydro-5H-[1,2,4]triazolo[1,5-a]pyrimidin-2-amine]	7.58
Fc1ccc(N2CCn3nc(N[C@@H]4[C@@H]5CC[C@H]4CN(c4ccnc(C(F)(F)F)c4)C5)nc32)cc1F [Example 4, 4-(3,4-difluorophenyl)-N-[(1R,5S,8S)-3-[2-(trifluoromethyl)-4-pyridyl]-3-azabicyclo[3.2.1]octan-8-yl]-5,6-dihydroimidazo[1,2-b][1,2,4]triazol-2-amine]	7.05
Cc1cc(N2C[C@H]3CC[C@@H](C2)[C@@H]3Nc2nc3n(n2)CCN3c2ccc(F)c(F)c2)ncn1 [Example 5, 4-(3,4-difluorophenyl)-N-[(1R,5S,8S)-3-(6-methylpyrimidin-4-yl)-3-azabicyclo[3.2.1]octan-8-yl]-5,6-dihydroimidazo[1,2-b][1,2,4]triazol-2-amine]	7.45
FC(F)(F)c1ccc(N2CCCn3nc(N[C@@H]4[C@@H]5CC[C@H]4CN(c4ccnc(C(F)(F)F)c4)C5)nc32)cc1 [Example 6, 4-[4-(trifluoromethyl)phenyl]-N-[(1R,5S,8S)-3-[2-(trifluoromethyl)-4-pyridyl]-3-azabicyclo[3.2.1]octan-8-yl]-6,7-dihydro-5H-[1,2,4]triazolo[1,5-a]pyrimidin-2-amine]	7.67
FC(F)(F)c1ccc(N2CCCCn3nc(N[C@@H]4[C@@H]5CC[C@H]4CN(c4ccnc(C(F)(F)F)c4)C5)nc32)cc1 [Example 7, 4-[4-(trifluoromethyl)phenyl]-N-[(1R,5S,8S)-3-[2-(trifluoromethyl)-4-pyridyl]-3-azabicyclo[3.2.1]octan-8-yl]-5,6,7,8-tetrahydro-[1,2,4]triazolo[1,5-a][1,3]diazepin-2-amine]	7.52
Cc1cc(N2C[C@H]3CC[C@@H](C2)[C@@H]3Nc2nc3n(n2)CCCCN3c2ccc(C(F)(F)F)cc2)ncn1 [Example 9, N-[(1R,5S,8S)-3-(6-methylpyrimidin-4-yl)-3-azabicyclo[3.2.1]octan-8-yl]-4-[4-(trifluoromethyl)phenyl]-5,6,7,8-tetrahydro-[1,2,4]triazolo[1,5-a][1,3]diazepin-2-amine]	7.72
Cc1ccc(N2CCCn3nc(N[C@@H]4[C@@H]5CC[C@H]4CN(c4ccnc(C(F)(F)F)c4)C5)nc32)cc1F [Example 10, 4-(3-fluoro-4-methyl-phenyl)-N-[(1R,5S,8S)-3-[2-(trifluoromethyl)-4-pyridyl]-3-azabicyclo[3.2.1]octan-8-yl]-6,7-dihydro-5H-[1,2,4]triazolo[1,5-a]pyrimidin-2-amine]	7.51
Cc1cc(N2C[C@H]3CC[C@@H](C2)[C@@H]3Nc2nc3n(n2)CCCN3c2ccc(C)c(F)c2)ncn1 [Example 11, 4-(3-fluoro-4-methyl-phenyl)-N-[(1R,5S,8S)-3-(6-methylpyrimidin-4-yl)-3-azabicyclo[3.2.1]octan-8-yl]-6,7-dihydro-5H-[1,2,4]triazolo[1,5-a]pyrimidin-2-amine]	7.56
Cc1cc(N2C[C@H]3CC[C@@H](C2)[C@@H]3Nc2nc3n(n2)CCN3c2ccc(C(F)(F)F)cc2)ncn1 [Example 12, N-[(1R,5S,8S)-3-(6-methylpyrimidin-4-yl)-3-azabicyclo[3.2.1]octan-8-yl]-4-[4-(trifluoromethyl)phenyl]-5,6-dihydroimidazo[1,2-b][1,2,4]triazol-2-amine]	7.57
Cc1noc(N2C[C@H]3CC[C@@H](C2)[C@@H]3Nc2nc3n(n2)CCCN3c2ccc(F)c(F)c2)n1 [Example 15, 4-(3,4-difluorophenyl)-N-[(1R,5S,8S)-3-(3-methyl-1,2,4-oxadiazol-5-yl)-3-azabicyclo[3.2.1]octan-8-yl]-6,7-dihydro-5H-[1,2,4]triazolo[1,5-a]pyrimidin-2-amine]	7.51
Fc1ccc(N2CCCn3nc(N[C@@H]4[C@@H]5CC[C@H]4CN(c4cnnc(Cl)c4)C5)nc32)cc1F [Example 16, N-[(1R,5S,8S)-3-(6-chloropyridazin-4-yl)-3-azabicyclo[3.2.1]octan-8-yl]-4-(3,4-difluorophenyl)-6,7-dihydro-5H-[1,2,4]triazolo[1,5-a]pyrimidin-2-amine]	7.76
Fc1ccc(N2CCCn3nc(N[C@@H]4[C@@H]5CC[C@H]4CN(c4cc(Cl)ncn4)C5)nc32)cc1F [Example 17, N-[(1R,5S,8S)-3-(6-chloropyrimidin-4-yl)-3-azabicyclo[3.2.1]octan-8-yl]-4-(3,4-difluorophenyl)-6,7-dihydro-5H-[1,2,4]triazolo[1,5-a]pyrimidin-2-amine]	7.24
COc1cc(N2C[C@H]3CC[C@@H](C2)[C@@H]3Nc2nc3n(n2)CCCN3c2ccc(F)c(F)c2)cnn1 [Example 18, 4-(3,4-difluorophenyl)-N-[(1R,5S,8S)-3-(6-methoxypyridazin-4-yl)-3-azabicyclo[3.2.1]octan-8-yl]-6,7-dihydro-5H-[1,2,4]triazolo[1,5-a]pyrimidin-2-amine]	7.58
Cc1cc(N2C[C@H]3CC[C@@H](C2)[C@@H]3Nc2nc3n(n2)CCCN3c2ccc(F)c(F)c2)cnn1 [Example 20, 4-(3,4-difluorophenyl)-N-[(1R,5S,8S)-3-(6-methylpyridazin-4-yl)-3-azabicyclo[3.2.1]octan-8-yl]-6,7-dihydro-5H-[1,2,4]triazolo[1,5-a]pyrimidin-2-amine]	7.64
Fc1ccc(N2CCCCn3nc(N[C@@H]4[C@@H]5CC[C@H]4CN(c4ccnc(C(F)(F)F)c4)C5)nc32)cc1F [Example 22, 4-(3,4-difluorophenyl)-N-[(1R,5S,8S)-3-[2-(trifluoromethyl)-4-pyridyl]-3-azabicyclo[3.2.1]octan-8-yl]-5,6,7,8-tetrahydro-[1,2,4]triazolo[1,5-a][1,3]diazepin-2-amine]	7.46

The next compounds have a higher pEC50 than those just listed; values first:

pEC50	SMILES
7.80	Fc1ccc(N2CCCn3nc(N[C@@H]4[C@@H]5CC[C@H]4CN(c4ccnc(C(F)(F)F)c4)C5)nc32)cc1F [Example 1, 4-(3,4-difluorophenyl)-N-[(1R,5S,8S)-3-[2-(trifluoromethyl)-4-pyridyl]-3-azabicyclo[3.2.1]octan-8-yl]-6,7-dihydro-5H-[1,2,4]triazolo[1,5-a]pyrimidin-2-amine]
7.81	COc1cc(N2C[C@H]3CC[C@@H](C2)[C@@H]3Nc2nc3n(n2)CCCN3c2ccc(F)c(F)c2)ncn1 [Example 14, 4-(3,4-difluorophenyl)-N-[(1R,5S,8S)-3-(6-methoxypyrimidin-4-yl)-3-azabicyclo[3.2.1]octan-8-yl]-6,7-dihydro-5H-[1,2,4]triazolo[1,5-a]pyrimidin-2-amine]
7.83	COc1cc(N2C[C@H]3CC[C@@H](C2)[C@@H]3Nc2nc3n(n2)CCCN3c2ccc(F)c(F)c2)ccn1 [Example 21, 4-(3,4-difluorophenyl)-N-[(1R,5S,8S)-3-(2-methoxy-4-pyridyl)-3-azabicyclo[3.2.1]octan-8-yl]-6,7-dihydro-5H-[1,2,4]triazolo[1,5-a]pyrimidin-2-amine]
7.86	Cc1ncnc(N2C[C@H]3CC[C@@H](C2)[C@@H]3Nc2nc3n(n2)CCCN3c2ccc(F)c(F)c2)c1F [Example 19, 4-(3,4-difluorophenyl)-N-[(1R,5S,8S)-3-(5-fluoro-6-methyl-pyrimidin-4-yl)-3-azabicyclo[3.2.1]octan-8-yl]-6,7-dihydro-5H-[1,2,4]triazolo[1,5-a]pyrimidin-2-amine]
7.93	Cc1cc(N2C[C@H]3CC[C@@H](C2)[C@@H]3Nc2nc3n(n2)CCCN3c2ccc(C(F)(F)F)cc2)ncn1 [Example 8, N-[(1R,5S,8S)-3-(6-methylpyrimidin-4-yl)-3-azabicyclo[3.2.1]octan-8-yl]-4-[4-(trifluoromethyl)phenyl]-6,7-dihydro-5H-[1,2,4]triazolo[1,5-a]pyrimidin-2-amine]
7.94	Cc1ccc(N2CCCn3nc(N[C@@H]4[C@@H]5CC[C@H]4CN(c4cc(Cl)ncn4)C5)nc32)cc1F [Example 13, N-[(1R,5S,8S)-3-(6-chloropyrimidin-4-yl)-3-azabicyclo[3.2.1]octan-8-yl]-4-(3-fluoro-4-methyl-phenyl)-6,7-dihydro-5H-[1,2,4]triazolo[1,5-a]pyrimidin-2-amine]
8.23	Fc1ccc(N2CCCn3nc(N[C@@H]4[C@@H]5CC[C@H]4CN(c4ccnc(Cl)c4)C5)nc32)cc1F [Example 2, N-[(1R,5S,8S)-3-(2-chloro-4-pyridyl)-3-azabicyclo[3.2.1]octan-8-yl]-4-(3,4-difluorophenyl)-6,7-dihydro-5H-[1,2,4]triazolo[1,5-a]pyrimidin-2-amine]
